For orientation: AC50 means the concentration at which the activity in the assay is half-maximal. Usually EC50 stands for the midpoint of the concentration-response curve. Usually GI50 stands for the concentration giving 50% growth inhibition.

Assay [1] deals with T1, Ubiquitin-conjugating enzyme E2 N (Homo sapiens, UniProt P61088).
T1 sequence (P61088 whole entry): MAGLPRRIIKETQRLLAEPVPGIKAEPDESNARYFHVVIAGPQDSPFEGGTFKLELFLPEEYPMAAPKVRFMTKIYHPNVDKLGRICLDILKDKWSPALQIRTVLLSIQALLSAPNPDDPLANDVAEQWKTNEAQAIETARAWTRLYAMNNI
The class given is functional.

The target of assay [2] is T2, Small ubiquitin-related modifier 1 (Homo sapiens, UniProt P63165). Put plainly: inhibitors of SUMO1 peptide binding, dose response, biochemical, fluorescence polarization, uHTS hits (AID 624382). The class given is functional. To be noted: read-out: IC50_Mean. A general note: Fluorescence polarisation rises when a labelled molecule tumbles more slowly, as on binding a larger partner.

Assay [3] concerns the target T3, DNA repair and recombination protein RAD54-like (Homo sapiens, UniProt Q92698).
T3 sequence (Q92698 whole entry): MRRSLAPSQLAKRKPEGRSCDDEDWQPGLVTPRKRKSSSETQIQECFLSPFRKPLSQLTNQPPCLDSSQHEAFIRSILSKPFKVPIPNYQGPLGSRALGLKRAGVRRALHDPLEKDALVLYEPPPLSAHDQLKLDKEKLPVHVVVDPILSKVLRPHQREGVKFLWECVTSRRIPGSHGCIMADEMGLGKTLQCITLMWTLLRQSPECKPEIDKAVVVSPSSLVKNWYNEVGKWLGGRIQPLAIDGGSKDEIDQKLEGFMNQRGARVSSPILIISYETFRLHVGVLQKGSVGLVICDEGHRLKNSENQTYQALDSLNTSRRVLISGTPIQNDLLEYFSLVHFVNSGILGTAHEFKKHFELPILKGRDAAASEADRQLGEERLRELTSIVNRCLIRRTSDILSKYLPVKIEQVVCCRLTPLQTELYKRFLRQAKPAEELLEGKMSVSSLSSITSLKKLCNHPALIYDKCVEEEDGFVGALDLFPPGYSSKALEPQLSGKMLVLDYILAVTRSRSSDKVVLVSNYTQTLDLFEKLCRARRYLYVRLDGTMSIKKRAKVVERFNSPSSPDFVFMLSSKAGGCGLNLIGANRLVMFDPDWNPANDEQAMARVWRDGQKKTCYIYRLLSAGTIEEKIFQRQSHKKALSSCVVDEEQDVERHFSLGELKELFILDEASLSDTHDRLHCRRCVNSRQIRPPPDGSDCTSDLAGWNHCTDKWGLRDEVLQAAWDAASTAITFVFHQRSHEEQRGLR
Briefly: inhibitors of human RAD54 branch migration, confirmation, biochemical, fluorescence, cherry-picked samples, dose series (AID 651657). It is filed as functional.

Assay [4] concerns the target T2, Small ubiquitin-related modifier 1. Briefly: inhibitors of SUMO1 partner interactions, dose response, biochemical, FRET (AID 624383). It is filed as functional. Conditions: read-out: IC50_Mean.
Assay [5] has as its target T4, Rac GTPase-activating protein 1 (Homo sapiens, UniProt Q9H0H5).
T4 sequence (Q9H0H5 whole entry): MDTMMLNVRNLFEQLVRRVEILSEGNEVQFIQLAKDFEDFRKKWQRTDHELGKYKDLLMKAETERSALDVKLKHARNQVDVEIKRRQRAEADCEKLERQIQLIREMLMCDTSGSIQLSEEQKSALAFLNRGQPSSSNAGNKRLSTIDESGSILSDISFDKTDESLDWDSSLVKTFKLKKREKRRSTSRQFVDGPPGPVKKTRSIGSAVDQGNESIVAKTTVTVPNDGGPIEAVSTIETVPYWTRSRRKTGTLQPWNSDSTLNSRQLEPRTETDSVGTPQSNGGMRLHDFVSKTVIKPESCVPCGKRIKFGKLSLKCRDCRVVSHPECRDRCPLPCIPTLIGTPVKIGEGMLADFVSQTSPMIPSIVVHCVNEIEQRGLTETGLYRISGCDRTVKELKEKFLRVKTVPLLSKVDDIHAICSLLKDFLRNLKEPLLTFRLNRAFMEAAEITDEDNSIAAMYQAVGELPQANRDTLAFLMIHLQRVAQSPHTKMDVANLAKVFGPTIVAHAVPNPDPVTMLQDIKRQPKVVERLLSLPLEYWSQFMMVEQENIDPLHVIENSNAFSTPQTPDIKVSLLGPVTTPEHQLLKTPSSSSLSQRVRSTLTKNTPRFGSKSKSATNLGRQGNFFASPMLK
Briefly: MgcRacGAP GTPase-activating activity inhibitors, confirmation, biochemical, ADP Hunter fluorescence, primary and confirmatory (AID 624330). The class given is functional.

The target in a further assay is T5, Bcl-2-related protein A1 (Mus musculus, UniProt Q07440).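 Note: confirmatory dose–response counterscreen on Bfl-1, used to check hits from a UBC13 polyubiquitin inhibitor campaign.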
T5 sequence (Q07440 whole entry): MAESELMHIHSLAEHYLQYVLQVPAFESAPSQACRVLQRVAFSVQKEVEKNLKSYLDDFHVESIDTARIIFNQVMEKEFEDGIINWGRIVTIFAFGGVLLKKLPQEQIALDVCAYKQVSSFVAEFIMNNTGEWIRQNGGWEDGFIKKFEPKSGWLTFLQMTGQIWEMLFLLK
It is filed as functional.

Assay [6] addresses T1, Ubiquitin-conjugating enzyme E2 N. The class given is functional. This is another data set of the same source.
Assay [7] can be described thus: NIH-3T3 fibroblast cytotoxicity, dose response, cytotoxicity control, cell-based, fluorescence, Alamar Blue, secondary assay (AID 2327).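 Note: NIH-3T3 mouse fibroblasts cultured with fluconazole at 8 µg/mL.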 The class given is functional.
The nature of assay [8]: C. albicans growth with fluconazole, confirmation, fluorescence, retest (AID 2467). The class given is functional, cell-based.
The next assay deals with T6, Aminopeptidase N (Plasmodium falciparum FcB1/Columbia, UniProt O96935).
T6 sequence (O96935 whole entry): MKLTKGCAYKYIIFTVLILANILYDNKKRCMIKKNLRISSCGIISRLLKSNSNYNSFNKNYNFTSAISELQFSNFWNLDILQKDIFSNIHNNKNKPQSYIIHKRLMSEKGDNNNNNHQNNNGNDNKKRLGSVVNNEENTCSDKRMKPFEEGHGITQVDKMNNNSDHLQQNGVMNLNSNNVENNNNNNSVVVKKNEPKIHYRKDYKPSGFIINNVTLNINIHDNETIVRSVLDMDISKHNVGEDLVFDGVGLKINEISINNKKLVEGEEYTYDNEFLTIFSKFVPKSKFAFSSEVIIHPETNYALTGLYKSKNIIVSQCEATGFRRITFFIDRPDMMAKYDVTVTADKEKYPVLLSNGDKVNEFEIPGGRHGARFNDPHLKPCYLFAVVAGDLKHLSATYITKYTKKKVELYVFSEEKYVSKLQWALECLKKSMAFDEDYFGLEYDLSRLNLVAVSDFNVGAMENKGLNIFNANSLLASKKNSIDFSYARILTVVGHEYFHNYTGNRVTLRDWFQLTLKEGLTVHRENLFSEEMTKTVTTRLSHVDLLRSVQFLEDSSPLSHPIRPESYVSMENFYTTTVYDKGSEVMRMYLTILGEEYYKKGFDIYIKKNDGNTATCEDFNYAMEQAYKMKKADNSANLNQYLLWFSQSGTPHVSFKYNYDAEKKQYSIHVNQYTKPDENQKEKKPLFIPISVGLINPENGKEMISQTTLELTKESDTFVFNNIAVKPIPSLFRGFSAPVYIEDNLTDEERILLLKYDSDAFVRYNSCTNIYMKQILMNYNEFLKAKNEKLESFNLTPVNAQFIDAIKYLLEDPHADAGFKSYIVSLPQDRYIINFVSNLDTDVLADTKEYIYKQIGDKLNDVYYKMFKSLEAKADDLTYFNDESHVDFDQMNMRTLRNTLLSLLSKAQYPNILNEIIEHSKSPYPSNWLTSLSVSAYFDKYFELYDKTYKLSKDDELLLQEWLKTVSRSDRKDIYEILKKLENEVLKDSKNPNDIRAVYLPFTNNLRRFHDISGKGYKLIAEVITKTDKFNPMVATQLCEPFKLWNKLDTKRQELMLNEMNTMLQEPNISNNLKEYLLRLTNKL
Briefly: P. falciparum M1AAP inhibitors, biochemical, fluorogenic H-Leu-NHMec substrate, 1536-well (AID 1445). Set-up: species or system Plasmodium falciparum 3D7, 3D7.

The target in assay [9] is 26S proteasome non-ATPase regulatory subunit 14 (Homo sapiens, UniProt O00487). Put plainly: inhibition of proteasome subunit RPN11 – biochemical, fluorescence polarization, uHTS hits, confirmation (AID 602368). It is filed as functional.
Assay [10] has as its target T7, Carboxy-terminal domain RNA polymerase II polypeptide A small phosphatase 1 (Homo sapiens, UniProt Q9GZU7).
T7 sequence (Q9GZU7 whole entry): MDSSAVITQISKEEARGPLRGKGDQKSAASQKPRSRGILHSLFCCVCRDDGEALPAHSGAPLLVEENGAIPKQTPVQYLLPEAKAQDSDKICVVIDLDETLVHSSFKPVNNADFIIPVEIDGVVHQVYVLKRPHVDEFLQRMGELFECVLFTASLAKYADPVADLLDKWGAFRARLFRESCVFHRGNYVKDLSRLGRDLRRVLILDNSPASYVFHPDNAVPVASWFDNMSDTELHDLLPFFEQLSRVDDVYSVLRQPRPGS
Briefly: inhibitors of CTDSP1, concentration-response testing, biochemical assay, absorbance-based, actives from ultra-high-throughput screening (AID 540297). The class given is functional.

The next assay addresses Prothrombin (Bos taurus, UniProt P00735). Put plainly: thrombin inhibition, dose response, biochemical, fluorescence polarization, uHTS hits (AID 602369). The class given is functional.
Assay [11] concerns the target 72 kDa type IV collagenase (Homo sapiens, UniProt P08253). Briefly: Dose Response validation of uHTS RPN11 inhibitor hits using a MMP-2 Fluorescence assay. It is filed as functional.
A further assay has as its system SN12K1. Briefly: cells. It is filed as functional. Conditions: Homo sapiens.
The next assay deals with P388/ADR. Briefly: cells. The class given is functional. Conditions: Mus musculus.
Assay [12] is described as follows: miR-122 activators in hepatoma reporter cells, dose response, cell-based, Huh7 psiCHECK-miR122, Renilla luciferase, cherry-picked (AID 651956).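 Note: huh7 hepatoma cells stably carrying a psiCHECK-2 miR-122 sensor plasmid; renilla luciferase signal reporting endogenous miR-122 activity after 48 h compound exposure.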 It is filed as functional.
Assay [13] concerns the target T8, Sentrin-specific protease 8 (Homo sapiens, UniProt Q96LD8).
T8 sequence (Q96LD8 whole entry): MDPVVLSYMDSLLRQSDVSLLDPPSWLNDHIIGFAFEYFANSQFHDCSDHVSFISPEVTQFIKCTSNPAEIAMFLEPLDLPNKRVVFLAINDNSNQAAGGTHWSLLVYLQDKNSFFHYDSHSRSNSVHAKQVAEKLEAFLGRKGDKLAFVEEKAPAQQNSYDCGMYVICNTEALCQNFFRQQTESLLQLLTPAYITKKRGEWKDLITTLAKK
It is filed as functional.

Assay [14] has as its target T8, Sentrin-specific protease 8. The class given is functional. This is another data set of the same source.

Calls of active or inactive are those of the source. Where only a bound is given, the exact number is not on record here.

T2 sequence (P63165 whole entry): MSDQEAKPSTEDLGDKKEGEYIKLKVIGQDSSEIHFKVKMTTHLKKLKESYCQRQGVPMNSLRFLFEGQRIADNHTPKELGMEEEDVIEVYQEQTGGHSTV
26S proteasome non-ATPase regulatory subunit 14, sequence (O00487 whole entry, the tested form may be a part): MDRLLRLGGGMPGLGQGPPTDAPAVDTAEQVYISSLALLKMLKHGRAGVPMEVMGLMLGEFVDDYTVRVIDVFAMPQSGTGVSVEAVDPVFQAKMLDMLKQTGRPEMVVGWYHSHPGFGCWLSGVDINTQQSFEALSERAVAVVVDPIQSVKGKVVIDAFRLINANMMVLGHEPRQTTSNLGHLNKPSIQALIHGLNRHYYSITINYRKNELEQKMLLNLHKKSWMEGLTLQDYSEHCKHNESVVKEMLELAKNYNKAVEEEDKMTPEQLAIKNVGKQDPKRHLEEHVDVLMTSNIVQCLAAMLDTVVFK
72 kDa type IV collagenase, sequence (P08253 whole entry): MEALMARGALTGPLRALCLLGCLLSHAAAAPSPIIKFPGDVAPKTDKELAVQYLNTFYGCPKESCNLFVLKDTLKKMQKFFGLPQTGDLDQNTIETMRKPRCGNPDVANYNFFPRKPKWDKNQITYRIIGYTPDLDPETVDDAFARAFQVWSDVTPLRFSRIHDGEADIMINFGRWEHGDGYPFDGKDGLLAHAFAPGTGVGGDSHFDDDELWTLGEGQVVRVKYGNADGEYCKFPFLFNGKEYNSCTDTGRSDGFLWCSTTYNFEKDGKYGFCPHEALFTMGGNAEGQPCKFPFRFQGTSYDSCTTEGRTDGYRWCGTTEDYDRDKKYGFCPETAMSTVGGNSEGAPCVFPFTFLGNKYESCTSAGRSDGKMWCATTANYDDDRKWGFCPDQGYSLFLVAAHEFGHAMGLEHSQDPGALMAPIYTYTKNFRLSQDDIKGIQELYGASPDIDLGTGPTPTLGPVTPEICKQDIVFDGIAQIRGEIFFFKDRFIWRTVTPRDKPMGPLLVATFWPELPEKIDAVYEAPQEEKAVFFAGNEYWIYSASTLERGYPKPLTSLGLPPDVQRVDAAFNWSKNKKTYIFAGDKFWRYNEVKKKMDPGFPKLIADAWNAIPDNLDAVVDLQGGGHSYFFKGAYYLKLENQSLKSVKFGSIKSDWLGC

As to `O=C(Nc1ccc(C2=NCCN2)cc1)c1ccc(C(=O)Nc2ccc(C3=NCCN3)cc2)c(Cl)c1`, the IC50 in assay [1] is 1.7 µM (active); in assay [2], > 66.6 µM (inactive); in assay [4] it was 4.61 µM (active); in assay [5], 35.8 µM (active); on Bcl-2-related protein A1, 9.71 µM (active); in assay [6], 3.32 µM (active). Further, in [3], the AC50 is 13.8 µM (active). Besides, the EC50 was > 160 µM (inactive) in [7] and 0.157 µM (active) in assay [8].
As to `COc1ccccc1N1C(=N)S/C(=C\c2ccc(-c3ccccc3C(=O)O)o2)C1=O`, the IC50 at Aminopeptidase N is 21.7 µM (active); in [9], 24.8 µM (active); in [10] it was 8.51 µM (active); at Prothrombin, 68.5 µM (active); in assay [11] it was > 100 µM (inactive).
In the case of `C/C(=C/c1c(C)[nH]c(=O)[nH]c1=O)C(=O)O`, the values for the GI50 in the assay with SN12K1 and in the assay with P388/ADR were > 1370 µM (inactive) and 813 µM (inactive), respectively.
Consider `CN1C(=O)c2cc(NC(=O)c3cccc(F)c3)ccc2OC[C@@H]2O[C@H](CC(=O)O)CC[C@H]21`, for which the AC50 in assay [12] was 51.2 µM (active).
On the same count and under the same terms, next, `CCC(=O)N(C)C[C@@H]1[C@H](c2ccc(-c3ccccc3F)cc2)[C@H](CO)N1C(C)=O`: 49.5 µM (active).
For the molecule `CCCCCCC(=O)Nc1nc(C)c(-c2csc(Nc3cc(OC)ccc3OC)n2)s1`, the IC50 in [2] is > 66.6 µM (inactive); in assay [4], 11.2 µM (active).
Regarding `COC/C=C/C1=CC2=CC(=O)C(C)(OC(=O)c3cnc4ccccc4n3)C(=O)C2=CN1CCCOC(C)C` (centres undefined), the IC50 is 19.9 µM (active) in [13] and 8.09 µM (active) in [14].
Regarding `O=C1NC(=O)C(Nc2ccccc2)C(=O)N1`, the IC50 was 22.5 µM (active) in assay [13] and 28.5 µM (active) in [14].
With `Cn1cncc1C#Cc1ccc2cc(C3(O)CCCCC3)oc(=O)c2c1`, the IC50 is 32.5 µM (active) in assay [9], 53.3 µM (active) at Prothrombin and > 100 µM (inactive) in [11].
Consider `COc1ccc(-n2c(SCC(=O)Nc3cccc(S(N)(=O)=O)c3)nc3ccccc3c2=O)cc1OC`, for which the IC50 in assay [2] is > 66.6 µM (inactive); in [4], 4.19 µM (active).

Source of the values: ChEMBL document CHEMBL1201862, “PubChem BioAssay data set” (2004).
